Source: ChEMBL document CHEMBL1146611, “Design and synthesis of novel pyrrolidine-containing bradykinin antagonists” (Bioorg Med Chem Lett, 2003)

Experiments:
[1] = target: T1, B1 bradykinin receptor (Homo sapiens) (UniProt P46663); assay: In vitro binding affinity against Bradykinin receptor B1 at 1 uM concentration
T1 sequence (whole entry): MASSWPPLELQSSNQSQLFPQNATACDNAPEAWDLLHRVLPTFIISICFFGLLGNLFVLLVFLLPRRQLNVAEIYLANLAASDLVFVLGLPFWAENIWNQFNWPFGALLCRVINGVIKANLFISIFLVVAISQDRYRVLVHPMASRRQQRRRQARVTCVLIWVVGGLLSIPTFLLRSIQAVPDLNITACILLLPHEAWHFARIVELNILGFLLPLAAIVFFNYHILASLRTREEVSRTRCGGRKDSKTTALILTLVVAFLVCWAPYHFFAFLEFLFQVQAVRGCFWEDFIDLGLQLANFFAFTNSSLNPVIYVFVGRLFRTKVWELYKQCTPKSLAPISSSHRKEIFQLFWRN

[2] = target: T2, B2 bradykinin receptor (Homo sapiens) (UniProt P30411); assay: In vitro binding affinity against Bradykinin receptor B2 at 1 uM concentration
T2 sequence (whole entry): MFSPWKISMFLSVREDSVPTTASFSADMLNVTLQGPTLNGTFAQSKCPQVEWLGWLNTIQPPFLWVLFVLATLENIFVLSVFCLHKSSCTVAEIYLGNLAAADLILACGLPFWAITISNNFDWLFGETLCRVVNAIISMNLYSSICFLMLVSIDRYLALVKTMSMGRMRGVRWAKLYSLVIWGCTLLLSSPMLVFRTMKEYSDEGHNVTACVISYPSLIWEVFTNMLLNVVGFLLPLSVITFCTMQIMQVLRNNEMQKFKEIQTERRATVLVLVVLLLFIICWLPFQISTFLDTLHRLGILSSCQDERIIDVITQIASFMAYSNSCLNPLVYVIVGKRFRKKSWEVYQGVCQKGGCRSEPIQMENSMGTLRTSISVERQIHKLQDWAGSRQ

B2 bradykinin receptor = target: T3, B2 bradykinin receptor (Homo sapiens, UniProt P30411); assay: In vitro binding affinity against Bradykinin receptor B2
T3 sequence (P30411 whole entry): T2 sequence (whole entry)

`Cc1ccc2cccc(OCc3c(C)ccc(N4CCC[C@H]4C(=O)O)c3C)c2n1` showed an inhibition [1] of 6% and an inhibition [2] of 19%.

In the case of `Cc1ccc2cccc(OCc3c(C)ccc(N4CCC[C@@H]4CO)c3C)c2n1`, the inhibition [1] is reported as 9% and the inhibition [2] is reported as 12%.

`CC(=O)Nc1ccc(/C=C/C(=O)NC[C@H]2CCCN2c2ccc(C)c(COc3cccc4ccc(C)nc34)c2C)cn1` showed an inhibition [1] of 1%, an inhibition [2] of 76% and a Ki (B2 bradykinin receptor) of 46 nM.

`Cc1ccc2cccc(OCc3c(C)ccc(N4CCC[C@@H]4C(=O)O)c3C)c2n1` gave an inhibition [1] of 1% and an inhibition [2] of 11%.

Molecule `Cc1ccc2cccc(OCc3c(C)ccc(N4CCC[C@@H]4CN4C(=O)c5ccccc5C4=O)c3C)c2n1` has an inhibition [1] of 1% and an inhibition [2] of 8%.

For `Cc1ccc2cccc(OCc3c(C)ccc(N4CCC[C@H]4CN4C(=O)c5ccccc5C4=O)c3C)c2n1`, the inhibition [1] was 5% and the inhibition [2] was 8%.

With `CC(=O)Nc1ccc(/C=C/C(=O)NC[C@@H]2CCCN2c2ccc(C)c(COc3cccc4ccc(C)nc34)c2C)cn1` the inhibition [1] was 1%, the inhibition [2] was 84% and the Ki (B2 bradykinin receptor) was 33 nM.

In the case of `Cc1ccc2cccc(OCc3c(C)ccc(N4CCC[C@H]4CO)c3C)c2n1`, the inhibition [1] is reported as 1% and the inhibition [2] is reported as 19%.
